Measurements reported in PubChem BioAssay AID624166 (Johns Hopkins Ion Channel Center, 2012).
pEC50: −log10 of the molar value. Activity calls are given as the source filed them.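 The calls were made as follows: active = raises the calcium signal in non-induced parental cells at some tested dose and a dose-response curve can be fitted; inactive = no activation at any dose, or no dose-response curve.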

Legend:
[1] = tested on: HEK293 M3R non-induced RGS4, carbachol calcium Fluo4; experiment: carbachol calcium response in non-induced cells, SAR follow-up, counter-screen for RGS4 potentiator project, cell-based, HEK293 M3R, non-induced RGS4, SAR compounds (AID 624166)
[2] = as above; details: HEK293 M3R non-induced RGS4, carbachol calcium Fluo4; at 33.3 µM (top of the series)

| SMILES | pEC50 [1] | calcium response, lower = inhibition [2] |
| --- | --- | --- |
| CCN1CCCC1CNCc1ccccc1OCc1ccc(F)cc1 (stereo not drawn) | 4.97 | – |
| Cc1ccc(S(=O)(=O)c2ccc(Oc3cccc(C)c3)cc2)cc1 | 5.57 | – |
| S=c1[nH]nc(-c2ccc(Cl)cc2)n1CC1CCCO1 (stereo not drawn) | 5.12 | – |
| CC(C)Cn1c(-c2ccc(F)cc2)n[nH]c1=S | 5.39 | – |
| COC(=O)C1CCCN(C(=O)c2cc(-c3ccc(C)cc3)nc3ccccc23)C1 (stereo not drawn) | 4.79 | – |
| Cc1ccc(NC(=O)c2cc(-c3cccs3)nc3ccccc23)nc1 | – | 52.7 (inactive) |
| COC(=O)c1cccc(Nc2nc(-c3cccnc3)nc3ccccc23)c1 | 5.24 | – |
| CCn1cc(CN2CCC(n3nccc3NC(=O)c3ccc(OC)cc3)CC2)cn1 | 5.03 | – |
| CN(Cc1ccc(F)cc1)C(=O)C(c1ccccc1)c1ccccc1 | 5.50 | – |
| CCCCn1c(-c2csc(CCC)c2)n[nH]c1=S | 5.48 | – |
| O=C(CNc1ccccc1)c1ccc([N+](=O)[O-])cc1 | – | 24.6 (inactive) |
| O=C(CNC1CCCCCC1)Nc1ccc(S(=O)(=O)NC2CC2)cc1 | – | 19.6 (inactive) |
| O=C(Nc1ccccc1N1CCN(C(=O)c2ccccc2)CC1)c1ccc(Cl)o1 | – | 17.2 (inactive) |
